# Test results published in patent US20040005702A1, “Insulin producing cell-line” (priority 2000, published 2004).
# Where “and” joins values, the source holds several entries; their conditions need not be identical. Identical values can stand only once. Entries after “also recorded” stand apart in the source; their conditions may differ.
# Key:
# [1] = tested on: human islet-derived 1.1E7 cells; test: Acute static incubation, insulin secretion by radioimmunoassay, 1.1E7 cells; type: cell-based; conditions: for threshold glucose concentration for stimulation of insulin release in the presence of the agent: IBMX or 2 mmol/l 5-thioglucose included
# Method: (§1) Acute static incubations at 37° C. were performed using monolayers of insulin-secreting cells. […] Approximately 2.5×10^5 cells were then seeded in each well of 24-well multiplates (Iwaki Glass, Japan). […] The cells were incubated at 37° C. for 40 minutes, after which the buffer was removed and replaced with 0.5 ml KRBB test buffer. […] After 60 min incubation at 37° C., a 450 μl aliquot of KRBB test buffer was removed from each well into 2 ml polypropylene tube (Lip Plastics, England) and centrifuged at 900 rpm for 5 minutes at 4° C. The supernatant was then collected from each tube and 200 μl aliquots were then stored at −20° C. for subsequent insulin determination by radioimmunoassay.
# (§2) Human insulin standards were prepared over a range of 2-fold serial dilutions from 5.0 ng/ml to 0.009 ng/ml using Human insulin standard (Sigma Chemical, UK). […] This antiserum was specificaly selected for high affinity with human insulin standard.
# (§3) After a further 24 hours incubation at 4° C., 1 ml of a 5% (w/v) charcoal coated with 1:10 dextran T-70 in sodium phosphate buffer (40 mmol/1, pH 7.4) was added to each tube. […] Counts bound to antibody (average total counts minus counts bound to charcoal) are inversely proportional to the concentration of insulin in the standard or unknown sample. The unknown concentration was determined by means of the standard curve, constructed from the known […] insulin standard using a spline curve fitting algorithim.
# [2] = tested on: human islet-derived 1.4E7 cells; test: Acute static incubation, insulin secretion by radioimmunoassay, 1.4E7 cells; type: cell-based
# Method: as §1, §2, §3
# [3] = tested on: human islet-derived 1.2B4 cells; test: Acute static incubation, insulin secretion by radioimmunoassay, 1.2B4 cells; type: cell-based
# Method: as §1, §2, §3
# [4] = tested on: 1.1B4, 1.1E7, 1.4E7 and 1.2B4 cells; test: Acute static incubation, insulin secretion, statements pooled over all four cell lines; type: cell-based, human; conditions: for insulin release at 11.1 mmol/l glucose: novel cells; for insulin release from the novel cell lines: each of the novel cell lines, glucose concentration not stated
# Method: as §1, §2, §3
# [5] = tested on: human islet-derived 1.1B4 cells; test: Acute static incubation, insulin secretion by radioimmunoassay, 1.1B4 cells; type: cell-based; conditions: for increase of the effect on raising glucose from 5.6 mmol/l to 11.1 mmol/l: 11.1 vs 5.6 mmol/l glucose; for increase of insulin secretion: at 5.6 mmol/l glucose
# Method: as §1, §2, §3
# 1.1B4 cells [6] = test: Glucose oxidation from D-[U-14C]glucose, 1.1B4 cells; type: cell-based, human; conditions: 2 mmol/l 5-thioglucose
# Method: (§4) A modification of the method developed by Keen et al. (1963) was used to determine oxidative glucose metabolism to CO2. In principle, the method involves incubation of cells in specially designed glass cups suspended inside standard counting vials with an airtight rubber stopper. A disc of filter paper (Whatman No. 1) was placed on the base of the counting vial. For each sample, 2.0×10^5 cells were incubated in the presence of either 1.1, 5.6, 11.1, 16.7 mmol/l glucose and D-[U-^14C] glucose to give a final concentration of […] (40 μl total volume). Effect of 2 mmol/l 5-thioglucose were also tested in 1.1 and 16.7 mmol/l glucose Blanks were set up where the cells were omitted and replaced with KRBB to give a final concentration of either 1.1 or 16.7 mmol/l glucose. Standards consisted of ^14C-labelled glucose (0.5 μCi) added to the filter paper at the base of the counting vial. The glass vials were sealed with the rubber caps and placed at 37° C. for one hour. The reaction was stopped by the addition of 0.2M HCl ([…]) injected through the rubber cap directly into the centre well using a Hamilton syringe. Phenylethylamine (PEA) was added (100 μl) through the sealed lid onto the filter paper at the base of the vial. Care was taken to avoid contamination of the centre well with PEA. […] Vials were capped and ^14C-glucose labelled radioactivity determined by scintillation counter.
# 1.1E7 cells [7] = test: Glucose oxidation from D-[U-14C]glucose, 1.1E7 cells; type: cell-based, human; conditions: 2 mmol/l 5-thioglucose
# Method: as §4
# 1.4E7 cells [8] = test: Glucose oxidation from D-[U-14C]glucose, 1.4E7 cells; type: cell-based, human; conditions: 2 mmol/l 5-thioglucose
# Method: as §4
# 1.2B4 cells [9] = test: Glucose oxidation from D-[U-14C]glucose, 1.2B4 cells; type: cell-based, human; conditions: 2 mmol/l 5-thioglucose, tested at 1.1 and 16.7 mmol/l glucose
# Method: as §4
# PANC-1 cells [10] = test: Glucose oxidation from D-[U-14C]glucose, PANC-1 cells; type: cell-based, human; conditions: 2 mmol/l 5-thioglucose, tested at 1.1 and 16.7 mmol/l glucose
# Method: as §4
# Hup-T3 cells [11] = test: Glucose oxidation from D-[U-14C]glucose, Hup-T3 cells; type: cell-based, human; conditions: 2 mmol/l 5-thioglucose, tested at 1.1 and 16.7 mmol/l glucose
# Method: as §4
# 1.1B4 cells [12] = test: Glucose utilisation from [5-3H]glucose, 1.1B4 cells; type: cell-based, human; conditions: 2 mmol/l 5-thioglucose
# Method: (§5) Experiments were performed in specially designed glass cups suspended inside standard counting vials with an airtight stopper. For each sample, 2.0×10^5 cells were incubated in the presence of either 1.1, 5.6, 11.1 or 16.7 mmol/l glucose and D-[5 ^3H] glucose to give a final concentration of 0.25 μCi (40 μl total volume) Effects of 2 mmol/l 5-thioglucose were also tested in 1.1 and 16.7 mmol/l glucose. Blanks were set up where the cells were omitted and replaced with KRBB to give a final concentration of either 1.1 or 16.7 mmol/l glucose. Standards consisted of D-[5^−3H] glucose (0.5 μCi) added to the base of the counting vial. The glass vials were sealed with the rubber caps and placed at 37° C. for one hour. The reaction was stopped by the addition of 0.2M HCl (50 μl) injected through the rubber cap directly into the centre well using a Hamilton syringe. Sterile deionized water was added (500 μl) through the sealed lid into the base of the vial. Vials were then placed at 37° C. for a 15 hour. The rubber caps and centre wells were removed and 5 ml of liquid scintillation fluid (BDH) added to each vial on top of the filter paper. Vials were capped and ^3H-glucose labelled radioactivity determined by scintillation counter.
# 1.1E7 cells [13] = test: Glucose utilisation from [5-3H]glucose, 1.1E7 cells; type: cell-based, human; conditions: 2 mmol/l 5-thioglucose, tested at 1.1 and 16.7 mmol/l glucose
# Method: as §5
# 1.4E7 cells [14] = test: Glucose utilisation from [5-3H]glucose, 1.4E7 cells; type: cell-based, human; conditions: 2 mmol/l 5-thioglucose, tested at 1.1 and 16.7 mmol/l glucose
# Method: as §5
# 1.2B4 cells [15] = test: Glucose utilisation from [5-3H]glucose, 1.2B4 cells; type: cell-based, human; conditions: 2 mmol/l 5-thioglucose, tested at 1.1 and 16.7 mmol/l glucose
# Method: as §5
# PANC-1 cells [16] = test: Glucose utilisation from [5-3H]glucose, PANC-1 cells; type: cell-based, human; conditions: 2 mmol/l 5-thioglucose, this concentration = 16.7 mmol/l glucose
# Method: as §5
# Hup-T3 cells [17] = test: Glucose utilisation from [5-3H]glucose, Hup-T3 cells; type: cell-based, human; conditions: 2 mmol/l 5-thioglucose, tested at 1.1 and 16.7 mmol/l glucose
# Method: as §5
# [18] = all four cell lines, 16.7 mmol/l glucose
# [19] = 2 mmol/l 5-thioglucose, 0 to 11.1 mmol/l glucose
# [20] = tested at 1.1 and 16.7 mmol/l glucose
# [21] = 200 μmol/ IBMX, glucose 0 to 16.7 mmol/l
compound,measurement,setting,value
CC(C)CC(=O)C(=O)O [KIC],insulin secretory response at 11.1 mmol/l glucose compared with 5.6 mmol/l,[1],significantly greater
same,insulin secretion at 11.1 mmol/l glucose,[2],induced insulin secretion
same,insulin secretion at 11.1 mmol/l glucose,[3],induced insulin secretion
same,insulin release at 11.1 mmol/l glucose,[4],significant increases in insulin release
"CC(C)C[C@H](N)C(=O)O [leucine, L-leucine]",increase of the effect on raising glucose from 5.6 mmol/l to 11.1 mmol/l,[5],30%
same,increase of insulin secretion,[5],Significant effects
same,insulin secretory response at 11.1 mmol/l glucose compared with 5.6 mmol/l,[1],significantly greater
same,insulin secretion at 11.1 mmol/l glucose,[2],induced insulin secretion
same,insulin secretion at 11.1 mmol/l glucose,[3],induced insulin secretion
same,insulin release at 11.1 mmol/l glucose,[4],significant increases in insulin release
O=CC(O)CO (stereo not shown) [glyceraldehyde],insulin release from the novel cell lines,[4],significantly stimulate
"C[C@H](N)C(=O)O [alanine, L-alanine]",increase of insulin secretion,[5],Significant effects
same,insulin secretory response at 11.1 mmol/l glucose compared with 5.6 mmol/l,[1],significantly greater
same,insulin secretion at 11.1 mmol/l glucose,[2],induced insulin secretion
same,insulin secretion at 11.1 mmol/l glucose,[3],induced insulin secretion
same,insulin release at 11.1 mmol/l glucose,[4],significant increases in insulin release
[Cl-].[K+] [KCl],secretory responsiveness at passage 40,"[4]; all four cell lines, passage 40 vs 17",maintain responsiveness
same,insulin release from the novel cell lines,[4],provoked insulin release
"CC1=NS(=O)(=O)c2cc(Cl)ccc2N1 [Diazoxide, diazoxide]",inhibition at 400 µM,"[4]; Homo sapiens, all four cell lines, 16.7 mmol/l glucose, diazoxide 400 μmol/l, EGTA in Ca2+-free buffer, read-out: inhibition of insulin release",20 to 50%
same,insulin output at 16.7 mmol/l glucose,[4]; [18],significantly reduced
O=C[C@H](O)[C@@H](O)[C@H](O)[C@H](S)CO [5-thioglucose],lowering of insulin output by 5-thioglucose,[5]; [19],20-50% and 20 to 50%
same,lowering of insulin output by 5-thioglucose,[1]; [19],20-50% and 20 to 50%
same,threshold glucose concentration for stimulation of insulin release in the presence of the agent,[1],5.6 mmol/L
same,effect of 5-thioglucose on insulin output and glucose responsiveness,[2]; 2 mmol/l 5-thioglucose,least affected; also recorded: not affected
same,glucose-stimulated insulin release in the presence of 5-thioglucose,[3]; 2 mmol/l 5-thioglucose,became apparent
same,lowering of insulin output by 5-thioglucose,[3]; [19],20-50% and 20 to 50%
same,effect of 5-thioglucose on responsiveness to increasing glucose concentrations,"[4]; all four cell lines, 2 mmol/l 5-thioglucose",improved; also recorded: caused a shift
same,ratio of glucose oxidation:glucose utilisation on addition of 5-thioglucose,1.1B4 cells [6],significant increase in ratio
same,effect of 5-thioglucose on glucose oxidation,1.1B4 cells [6]; [20],inhibit the oxidation of glucose at both 1.1 mmol/l and 16.7 mmol/l glucose; also recorded: only marginally inhibited
same,ratio of glucose oxidation:glucose utilisation on addition of 5-thioglucose,1.1E7 cells [7],significant increase in ratio
same,ratio of glucose oxidation:glucose utilisation on addition of 5-thioglucose,1.4E7 cells [8],significant increase in ratio
same,effect of 5-thioglucose on glucose oxidation,1.4E7 cells [8]; [20],clearly inhibiting oxidation at both 1.1 and 16.7
same,effect of 5-thioglucose on glucose oxidation,1.2B4 cells [9],inhibited oxidation at 16.7 mmol/l
same,effect of 5-thioglucose on glucose oxidation,PANC-1 cells [10],significant inhibition of oxidation at both 1.1 and 16.7 mmol/l
same,effect of 5-thioglucose on glucose oxidation,Hup-T3 cells [11],able to inhibit oxidation at both 1.1 and 16.7 mmol/l glucose
same,effect of 5-thioglucose on glucose utilisation,1.1B4 cells [12]; 1.1 mmol/l glucose,did not affect
same,effect of 5-thioglucose on glucose utilisation,1.1B4 cells [12]; 16.7 mmol/l glucose,reduce utilisation
same,effect of 5-thioglucose on glucose utilisation,1.1E7 cells [13],only affected utilisation at 16.7 mmol/l
same,effect of 5-thioglucose on glucose utilisation,1.4E7 cells [14],unaffected
same,effect of 5-thioglucose on glucose utilisation,1.2B4 cells [15],had no affect
same,effect of 5-thioglucose on glucose utilisation,PANC-1 cells [16],inhibit utilisation only at this concentration
same,effect of 5-thioglucose on glucose utilisation,Hup-T3 cells [17],did not inhibit
O=C(O)CN(CCOCCOCCN(CC(=O)O)CC(=O)O)CC(=O)O [EGTA],insulin output at 16.7 mmol/l glucose,[4]; [18],significantly inhibited
COc1ccc(Cl)cc1C(=O)NCCc1ccc(S(=O)(=O)NC(=O)NC2CCCCC2)cc1 [glibenclamide],insulin release from the novel cell lines,[4],provoked insulin release
COc1ccc(CCN(C)CCCC(C#N)(c2ccc(OC)c(OC)c2)C(C)C)cc1OC (stereo not shown) [verapamil],insulin output at 16.7 mmol/l glucose,[4]; [18],similarly reduced
"N=C(N)NCCC[C@H](N)C(=O)O [arginine, L-arginine]",increase of the effect on raising glucose from 5.6 mmol/l to 11.1 mmol/l,[5],17%
same,insulin secretory response at 11.1 mmol/l glucose compared with 5.6 mmol/l,[1],significantly greater
same,insulin secretion at non-stimulatory glucose,"[4]; each cell line, 5.6 mmol/l glucose",significantly stimulated
same,insulin release at 11.1 mmol/l glucose,[4],significant increases in insulin release
CCCCNC(=O)NS(=O)(=O)c1ccc(C)cc1 [tolbutamide],increase of the effect on raising glucose from 5.6 mmol/l to 11.1 mmol/l,[5],20%
same,insulin release from the novel cell lines,[4],provoked insulin release
isobutylmethylxanthine [IBMX],increase of secretory response to glucose by IBMX,[5]; [21],20 to 100% and 20 to 60%
same,stimulation of secretory response with IBMX,[5]; [21],1.3-2 fold
same,insulin secretion with IBMX in the absence of glucose,[5]; absence of glucose,modestly enhanced
same,increase of secretory response to glucose by IBMX,[1]; [21],20 to 100% and 20 to 60%
same,stimulation of secretory response with IBMX,[1]; [21],1.3-2 fold
same,threshold glucose concentration for stimulation of insulin release in the presence of the agent,[1],5.6 mmol/L
same,increase of secretory response to glucose by IBMX,[2]; [21],20 to 100% and 20 to 60%
same,stimulation of secretory response with IBMX,[2]; [21],1.3-2 fold
same,insulin secretion with IBMX in the absence of glucose,[2]; absence of glucose,modestly enhanced
same,effect of IBMX on insulin released,[3]; 200 μmol/ IBMX,did not significantly affect; also recorded: insensitive
